# What was measured:
# IDO1 [1] = molecular target: T1, IDO1 (Homo sapiens, UniProt P14902); test: Ki value of IDO1; format: biochemical
# From the text: (§1) The nucleotide sequences of IDO1, IDO2, and TDO have been disclosed.
# (§2) The IC50 test of IDO1 can be performed with reference to existing methods in the art, such as the method described in Chinese Patent NO.
# hTDO [2] = molecular target: T2, hTDO (Homo sapiens, UniProt P48775); test: Half effective inhibitory concentration IC50 (enzyme level) of TDO; format: biochemical; details: pH 7.0, NI means of no inhibitory activity, read-out: IC50 enzymatic TDO
# T2 construct: made in house
# T2 sequence (P48775 whole entry): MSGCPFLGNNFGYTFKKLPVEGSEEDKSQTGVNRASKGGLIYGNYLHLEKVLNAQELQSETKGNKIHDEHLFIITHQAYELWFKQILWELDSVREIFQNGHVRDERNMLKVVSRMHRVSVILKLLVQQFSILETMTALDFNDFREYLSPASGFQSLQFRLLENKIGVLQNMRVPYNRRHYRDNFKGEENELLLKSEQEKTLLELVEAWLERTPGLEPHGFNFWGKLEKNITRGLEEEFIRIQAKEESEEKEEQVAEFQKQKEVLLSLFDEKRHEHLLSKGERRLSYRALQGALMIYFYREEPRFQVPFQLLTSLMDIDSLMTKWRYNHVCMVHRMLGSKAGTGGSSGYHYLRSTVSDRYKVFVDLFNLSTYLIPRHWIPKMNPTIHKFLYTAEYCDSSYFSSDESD
# Protocol: The nucleotide sequences of IDO1, IDO2, and TDO have been disclosed. The active IDO1, IDO2, and TDO in the Examples are human IDO1, IDO2, and TDO, and can be prepared by conventional molecular cloning methods.
# In a 500 μL of standard detection system, 50 mmol/L potassium phosphate buffer (pH 7.0), 200 μg/mL catalase, 40 mmol/L ascorbic acid, 20 μmol/L methylene blue, substrate L-tryptophan with suitable concentration and hTDO inhibitors to be tested were mixed. After the mixed solution was warmed in water bath at 37° C. for 5 min, hTDO was added to react at 37° C. for 30 min. After the enzymatic reaction was completed, […] (w/v) trichloroacetic acid was added to terminate the reaction. Then the reaction mixture was heated in a 65° C. water bath for 15 min to make the reaction product transform from N-formyl-kynurenine to kynurenine, and centrifuged at […] for 10 min. 100 μL of supernatant was draw and mixed with equal volume of 2‰ (w/v) p-dimethylaminobenzaldehyde in acetic acid completely. The kynurenine can reacted with the solution and turned the mixed solution to yellow, and the absorbance was measured at 492 nm by microplate reader. The inhibitory rate was plotted against the inhibitor concentration, and the IC50 value was calculated by modified Karber method, the experimental results were shown in Table 1.
# IDO2 [3] = molecular target: T3, IDO2 (Homo sapiens, UniProt Q6ZQW0); test: Half effective inhibitory concentration IC50 (cell) of IDO2, transfected U87 MG cells; format: cell-based; details: U87 MG cells transfected with pcDNA3.1(+)-IDO2, 24 h; read-out: IC50 Cellular IDO2
# T3 construct: made in house
# T3 sequence (Q6ZQW0 1-407): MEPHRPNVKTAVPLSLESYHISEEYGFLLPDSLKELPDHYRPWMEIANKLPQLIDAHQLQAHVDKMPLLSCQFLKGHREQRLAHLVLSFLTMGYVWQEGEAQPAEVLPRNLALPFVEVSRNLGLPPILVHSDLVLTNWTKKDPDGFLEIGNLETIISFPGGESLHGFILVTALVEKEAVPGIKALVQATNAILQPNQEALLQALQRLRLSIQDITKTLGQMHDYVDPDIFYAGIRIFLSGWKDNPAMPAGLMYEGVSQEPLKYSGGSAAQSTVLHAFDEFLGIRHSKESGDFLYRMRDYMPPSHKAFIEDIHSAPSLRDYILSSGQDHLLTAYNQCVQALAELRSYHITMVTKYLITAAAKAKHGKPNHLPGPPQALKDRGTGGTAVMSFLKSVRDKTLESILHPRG
# Protocol: The nucleotide sequences of IDO1, IDO2, and TDO have been disclosed. […] U87 MG cell line (ATCC No.: HTB-14) was cultured in DMEM high-sugar medium containing 10% fetal bovine serum in a 37° C., 5% CO2 incubator. The cells were blown evenly into 6-well plate, and transfected when the cells grew to 80%-90% fusion. […] The cells were cultured in 37° C., 5% CO2 incubator for 6 h, and the medium was changed into DMEM medium containing 10% serum after adherence. […] Test compounds (including compounds of the present invention, […] and D-1-MT) at different concentration gradients were added and the total volume of each well was supplemented to 200 μl with cell culture medium containing L-tryptophan (200 μM of final concentration, sterilized by filtration). After incubated for 24 h, 140 μL of supernatant was taken into another 96-well plate, 10 μL of 30% (w/v) trichloroacetic acid was added, heated at 65° C. for 15 min, and centrifuged at 13800×g for 5 minutes. […] The experimental grouping was pcDNA3.1 (+)-IDO2 transfected group (experimental group), pcDNA3.1 (+) transfected group (empty plasmid control group), and non-transfected group (blank control group). Each group had three repeated well. The inhibitory rate was plotted against the inhibitor concentration, and the IC50 value was calculated by modified Karber method.
# IDO2 [4] = molecular target: T3, IDO2; test: Half effective inhibitory concentration IC50 (enzyme level) of IDO2; format: biochemical; details: human IDO2, pH 7.5, read-out: IC50 enzymatic IDO2
# Protocol: After the mixed solution was in water bath at 37° C. for 5 min, IDO2 was added to mixed solution and reacted at 37° C. for 30 min. After the enzymatic reaction was completed, 200 μL of 30% (w/v) trichloroacetic acid was added to terminate the reaction. Then the reaction mixture was heated in a 65° C. water bath for 15 min to make the reaction product transform from N-formyl-kynurenine to kynurenine, and centrifuged at […] for 10 min. 100 μL of supernatant was draw and mixed with equal volume of 2‰ (w/v) p-dimethylaminobenzaldehyde in acetic acid completely.
# IDO1 [5] = molecular target: T1, IDO1; test: Cellular IC50 of IDO1; format: cell-based
# From the text: as §1, §2
# hTDO [6] = molecular target: T2, hTDO; test: Half effective inhibitory concentration IC50 (cell) of TDO, transfected HEK293 cells; format: cell-based; details: HEK293 cells transfected with pcDNA3.1(+)-hTDO, 5 h; NI means of no inhibitory activity; read-out: IC50 Cellular TDO
# Protocol: The nucleotide sequences of IDO1, IDO2, and TDO have been disclosed. The active IDO1, IDO2, and TDO in the Examples are human IDO1, IDO2, and TDO, and can be prepared by conventional molecular cloning methods. HEK293 cell line was cultured in DMEM high-sugar medium containing 10% fetal bovine serum in a 37° C., 5% CO2 incubator. The cells were blown evenly into 6-well plates, and transfected when the cells grew to 80%-90% fusion. The operation was carried out according to the instructions of Lipofectamine 2000 while improved slightly: the serum-containing medium was draw out and the cells were washed twice with PBS, and 1500 μL of serum-free medium was added to each well. […] The cells were cultured in 37° C., 5% CO2 incubator for 4-6 h, and then the medium was changed into DMEM medium containing 10% serum. […] Test compounds (including compounds of the present invention, […] and INCB023460) at different concentration gradients were added and the total volume of each well was supplemented to 200 μl with cell culture medium. After incubated for 5 h, 140 μL of supernatant was taken into another 96-well plate, 10 μL of 30% (w/v) trichloroacetic acid was added, heated at 65° C. for 15 min, and centrifuged at 13800×g for 5 minutes. 100 μL of supernatant was mixed with equal volume of 2‰ (w/v) […] acetic acid solution, the absorbance was measured at 492 nm by microplate reader after fully mixing. The experimental grouping was pcDNA3.1 (+)-hTDO transfected group (experimental group), pcDNA3.1 (+) transfected group (plasmid-empty control group), and non-transfected group (blank control group). Each group had three repeated well. The inhibitory rate was plotted against the inhibitor concentration, and the IC50 value was calculated by modified Karber method, the experimental results were shown in Table 1.
# IDO1 [7] = molecular target: T1, IDO1; test: IC50 (enzyme level) of IDO1; format: biochemical; details: read-out: IC50 enzymatic IDO1
# From the text: as §1, §2
# IDO2 [8] = molecular target: T3, IDO2; test: Determination of IDO2 inhibitor type and Ki value; format: biochemical; details: [S]/V~[i] map, L-tryptophan 20-40 mM
# Protocol: as §1
# After the mixed solution was in water bath at 37° C. for 5 min, 10 μL of IDO2 (about 1 μM) was added to mixed solution and reacted at 37° C. for 30 min. After the enzymatic reaction was completed, 200 μL of 30% (w/v) trichloroacetic acid was added to terminate the reaction. Then the reaction mixture was heated in 65° C. water bath for 15 min to make the reaction product transform from N-formyl-kynurenine to kynurenine, and centrifuged at […] for 10 min. 100 μL of supernatant was draw and mixed with equal volume of 2‰ (w/v) p-dimethylaminobenzaldehyde in acetic acid completely. […] The inhibitor type was determined by Dixon mapping method (1/v˜[i]); the Ki value of inhibitor was obtained by [S]/V˜[i] map.
# [9] = cellular, read-out: IC50 Cellular IDO1
# T1 sequence (P14902 whole entry): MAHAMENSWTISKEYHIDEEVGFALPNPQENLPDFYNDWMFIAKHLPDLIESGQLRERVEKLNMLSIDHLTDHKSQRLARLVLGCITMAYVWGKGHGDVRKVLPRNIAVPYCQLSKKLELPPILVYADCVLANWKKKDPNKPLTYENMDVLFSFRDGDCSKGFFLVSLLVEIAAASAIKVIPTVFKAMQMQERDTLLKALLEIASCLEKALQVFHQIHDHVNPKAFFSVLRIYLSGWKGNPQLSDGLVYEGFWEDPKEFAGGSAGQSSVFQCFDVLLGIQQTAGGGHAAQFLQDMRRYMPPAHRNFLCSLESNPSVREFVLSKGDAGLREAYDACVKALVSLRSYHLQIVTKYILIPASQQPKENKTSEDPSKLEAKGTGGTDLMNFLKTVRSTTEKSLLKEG
Ki (IDO1 [1]) [µM],IC50 (hTDO [2]) [µM],IC50 (IDO2 [3]) [µM],IC50 (IDO2 [4]) [µM],IC50 (IDO1 [5]; [9]) [µM],IC50 (hTDO [6]) [µM],IC50 (IDO1 [7]) [µM],Ki (IDO2 [8]) [µM],Structure (SMILES),IC50 (IDO1 [5]) [µM]
63.3,40,41.7,83,0.185,0.197,39.1,–,O=C1c2cc(F)ccc2-n2c1nc1ccc(Cn3cc(-c4ccccc4)nn3)cc1c2=O [3c],–
–,0.87,3.58,31.4,–,0.092,–,1.96,O=C1c2cc(F)ccc2-n2c1nc1ccc(CN3CCNCC3)cc1c2=O [1b],–
–,0.87,16.5,39.6,–,0.071,–,17.5,O=C1c2cc(F)ccc2-n2c1nc1ccc(CN3CCOCC3)cc1c2=O [1f],–
98.1,88.7,68.4,134,0.547,1.44,82.6,–,"Cc1ccc2nc3n(c(=O)c2c1)-c1ccc(Cn2cc(-c4ccccc4)nn2)cc1C3=O [3d, 8-(4-phenyl-1H-1,2,3-triazol-1-methylene) -2-methyltryptanthrin]",–
103,46.6,48.1,98,0.278,0.688,45.2,–,O=C1c2cc(Cn3cc(-c4ccccc4)nn3)ccc2-n2c1nc1ccccc1c2=O [3a],–
–,44.6,51.2,102,0.201,0.715,41.1,–,"O=C1c2cc(Cn3cc(-c4ccccc4)nn3)ccc2-n2c1nc1ccc(Br)cc1c2=O [3e, 8-(4-phenyl-1H-1,2,3-triazol-1-methylene) -2-bromotryptanthrin]",–
–,2.41,23.3,46.9,0.177,0.184,–,8.85,CN1CCN(Cc2ccc3nc4n(c(=O)c3c2)-c2ccccc2C4=O)CC1 [1d],–
–,50.1,65.1,125,0.245,0.713,42.2,–,"O=C1c2cc(Cn3cc(-c4ccccc4)nn3)ccc2-n2c1nc1ccc(Cl)cc1c2=O [3f, 8-(4-phenyl-1H-1,2,3-triazol-1-methylene) -2-chlorotryptanthrin]",–
–,0.41,3.81,14,–,0.063,–,4.32,CN(C)Cc1ccc2nc3n(c(=O)c2c1)-c1ccc(F)cc1C3=O [1e],–
96.3,81.8,50.1,99.6,0.335,1.37,50,–,O=C1c2cc(Cn3cc(-c4ccccc4)nn3)ccc2-n2c1nc1ccc(F)cc1c2=O [3b],–

Structure (SMILES),Ki (IDO1 [1]) [µM],IC50 (hTDO [2]) [µM],IC50 (IDO2 [3]) [µM],IC50 (IDO2 [4]) [µM],IC50 (IDO1 [5]; [9]) [µM],IC50 (hTDO [6]) [µM],IC50 (IDO1 [7]) [µM],Ki (IDO2 [8]) [µM],IC50 (IDO1 [5]) [µM]
CC(C)(C)OC(=O)N1CCN(Cc2ccc3nc4n(c(=O)c3c2)-c2ccc(F)cc2C4=O)CC1 [1c],–,0.45,8.05,62.6,–,0.067,–,6.11,0.133
CN1CCN(Cc2ccc3nc4n(c(=O)c3c2)-c2ccc(F)cc2C4=O)CC1 [1a],–,0.76,18.7,18.4,–,0.093,–,6.32,0.022

# — patent publication US11103511B2, “Substituted indolo[2,1-b]quinazolines as inhibitors of tryptophan dioxygenase and indoleamine 2,3-dioxygenase 1” (FUDAN UNIVERSITY, priority 2017, dated 2021)
